In patent US20230390371A1, “ANTI-TUMOR IMMUNITY INDUCES THE PRESENTATION OF ABERRANT PEPTIDES” (STICHTING HET NEDERLANDS KANKER INSTITUUT-ANTONI VAN …, priority 2020, published 2023):
“Also recorded” adds a separate entry of the source. Where a SMILES comes first, the peptide text is derived from it. The star is where a group is joined. Cbz = O=C(OCc1ccccc1)*

Assays:
Assay type in all cases: cell-based, human
MD55A3 cells = assay: Proteomic analysis of tryptophan-containing proteins with IFNγ and proteasome inhibition; settings: combined treatment with IFNγ and MG132
Protocol: Frozen MD55A3 cell pellets were lysed, reduced and alkylated in heated guanidine (GuHCl) lysis buffer as described by Jersie-Christensen et al.^70. Proteins were digested with Lys-C (Wako) for 2 h at 37° C., enzyme/substrate ratio 1:100. The mixture was then diluted to 2 M GuHCl and digested overnight at 37° C. with trypsin (Sigma) in enzyme/substrate ratio 1:50. Digestion was quenched by the addition of TFA (final concentration 1%), after which the peptides were desalted on a Sep-Pak C18 cartridge (Waters, Massachusetts, USA). Samples were vacuum dried and stored at −80° C. until LC-MS/MS analysis.
Peptides were reconstituted in 2% formic acid and analyzed by nano LC-MS/MS on an Q Exactive HF-X Hybrid Quadrupole-Orbitrap Mass Spectrometer equipped with an EASY-NLC 1200 system (Thermo Scientific). […]
RAW files were analyzed by Proteome Discoverer (version 2.3.0.523, Thermo Scientific) using standard settings. […] Differentially expressed proteins were determined using a t-test (threshold: FDR 1% or FDR 5% and S0: 0.13). […]
To look at the downstream consequences of W-Bump formation, we assessed the impact of W-Bumps on protein expression by proteomic analysis following IFNγ induction. We first analyzed the differential protein expression in IFNγ-treated versus control cells (data not shown) and grouped proteins according to the number of tryptophan residues they contain (FIG. 2l). […]

12T cells = assay: Ribosome profiling with diricore / bump analysis; settings: IFNγ+IDOi
From the text: Preprocessing of FASTQ files consisted of adapter removal using cutadapt (available at doi.org/10.14806/ej.17.1.200) with the parameters (--quality-base=33-O7-e 0.15-m 20-q 5) and removal of rRNA and tRNA contaminants by means of alignment against a reference (rRNA reference data from GENCODE^61 v19: rRNA, MT_RNA, rRNA_pseudogene, and tRNA reference data from GtRNAdb) using bowtie2^62 with parameters (--seed 42−p1—local).
The actual alignment of pre-processed FASTQ files was done with TopHat2^63 and Bowtie2^62 against GRCh37/ hg19 and GENCODE v19/BASIC transcript with Ensembl coordinates using parameters (seed 42-n 2-m 1 --no-novel-juncs --no-novel-indels --no-coverage-search --segment-length 25). In a subsequent step the primary aligned reads filtered for a minimum mapping quality of 10. […]
The reads (FASTQ) from Riboseq experiments were aligned to human transcript assembly (gencode v19) after removal of low quality reads and the reads that align to tRNA and rRNA (refer methods section—Diricore). […]
BAM files were converted to BED using BEDTOOLS 68 and later file formats were edited using PERL scripts. Each gene was divided into 100 windows of equal length, and read (separately for every sample) at each window were quantified using BEDTOOLS. The array of reads, logged (base 2), were normalized between 0 to 1. […]

MD55A3 melanoma cells = assay: V5-ATF4(1-63)-His frameshift reporter, His-tag pulldown and V5-tag immunoblotting; settings: IFNγ+IDOi, MD55A3 reporter cells
From the text: FIG. 3: W-Bumps are associated with disordered out-of-frame peptides, and shortage in tryptophan leads to frameshifting events. • (a) Bar-plots depicting total occurrences of alpha-helices, beta-sheets and turns for tryptophan-containing peptide sequences corresponding to W-Bumps (left) and all remaining peptide sequences (middle), and the difference in percentages (right). […] Tryptophan shortage, on the other hand, can lead to stalling on the tryptophan codon (bottom left panel), or could in theory induce frameshifting events, leading to aberrant peptide production (lower right panel). Since secondary structure of growing polypeptide chains is attained in the lower tunnel of the ribosome, the loss of an a-helical secondary structure in this tunnel could hamper ribosomal progression. (c) Line-plots depicting the probability of disorderedness of peptide sequences. The position of the tryptophan is indicated by the dashed line. […] The green line represents the average probability of disorderedness of all peptides (‘All tryptophan codons’, n=36508). A group of outlier candidates that show relatively ordered out-of-frame peptide sequences were selected for comparisons (‘Selected tryptophan codons’, n=94, red). (d) Line-plots depicting mean frequency of RPFs at single nucleotide resolution across all tryptophans (green) and the selected outlier set (red) from panel 3c. […]

[1] = tested on: peripheral blood mononuclear cells from healthy donors; assay: Immunogenicity in peripheral blood mononuclear cells from healthy donors

Molecule: CC(C)C[C@@H](C=O)NC(=O)[C@H](CC(C)C)NC(=O)[C@H](CC(C)C)NC(=O)OCc1ccccc1 [MG132] (Cbz-Leu-Leu-Leu-aldehyde)
- restoration of reduced levels of high-tryptophan containing proteins (MD55A3 cells): did not restore

Molecule: Cn1cc(C[C@H](N)C(=O)O)c2ccccc21 [IDOi, 1-Methyl-L-tryptophan]
- accumulation of RPFs at the W-Bumps region / bumps (12T cells): rescued; also recorded: completely abolished
- global redistribution of RPFs towards the translation initiation sites and enrichment of tryptophan codon signal at A-site (12T cells): negated
- IFNγ-induced frameshifting (MD55A3 melanoma cells): prevented

Molecule: TVIGTLLEI (RHOBTB3-based peptide) [SEQ ID NO:61, RHOBTB3-derived peptide presented by MDA-MB-231]
- immunogenicity [1]: showed immunogenicity

Molecule: GLLETHPALLL (SRSF3-based peptide) [SEQ ID NO:62, SRSF3-derived peptide presented by MDA-MB-231]
- immunogenicity [1]: showed immunogenicity

Molecule: TLVEDLLEV (RFX1-based peptide) [SEQ ID NO:58, RFX1-derived peptide presented by MDA-MB-231]
- immunogenicity [1]: showed immunogenicity
